From patent US9624206B2, “Antibacterial 1H-indazole and 1H-indole derivatives” (priority 2013, dated 2017) come the findings set out here.

≈ marks a conversion by molar mass, not a printed value. Bounds are passed on as bounds.

What all share (test): Bacterial growth minimal inhibitory concentration (microdilution, CLSI M7-A7)
Common to all, as to assay type: cell-based

Experiment [1] deals with Acinetobacter baumannii T6474. As to conditions: multiply-resistant strain (in particular quinolone-resistant), cation-adjusted Mueller-Hinton Broth; for MIC: Acinetobacter baumannii, T6474. The method, then:
(§1) Minimal Inhibitory Concentrations (MICs; mg/L) were determined in cation-adjusted Mueller-Hinton Broth by a microdilution method following the description given in “Methods for Dilution Antimicrobial Susceptibility Tests for Bacteria that Grow Aerobically”, Approved standard, 7th ed., Clinical and Laboratory Standards Institute (CLSI) Document M7-A7, Wayne, Pa., USA (2006).
(§2) All Example compounds were tested against several Gram-positive and Gram-negative bacteria. […] K. pneumoniae A-651 and Acinetobacter baumannii T6474 are multiply-resistant strains (in particular quinolone-resistant), while E. coli ATCC25922 and P. aeruginosa ATCC27853 are quinolone-sensitive strains.

Experiment [2] concerns E. coli ATCC25922. As to conditions: quinolone-sensitive strain, cation-adjusted Mueller-Hinton Broth; for MIC: Escherichia coli, ATCC25922. The method, then:
as §1, §2

For experiment [3], the system named is K. pneumoniae A-651. To be noted: multiply-resistant strain (in particular quinolone-resistant), cation-adjusted Mueller-Hinton Broth; for MIC: Klebsiella pneumoniae, A651. The method, then: as §1, §2
Experiment [4] concerns P. aeruginosa ATCC27853. As to conditions: quinolone-sensitive strain, cation-adjusted Mueller-Hinton Broth; for MIC: Pseudomonas aeruginosa, ATCC27853. The method, then:
as §1, §2

As for `C[C@@](CCn1ncc2c(F)c(C#CC#CC3(O)COC3)ccc21)(C(=O)NO)S(C)(=O)=O` [Example 38, (R)-4-(4-fluoro-5-((3-hydroxyoxetan-3-yl)buta-1,3-diyn-1-yl)-1H-indazol-1-yl)-N-hydroxy-2-methyl-2-(methylsulfonyl)butanamide], the minimum inhibitory concentration (MIC) (commonly the least concentration at which growth counts as inhibited) worked out at 32 µg/mL (≈ 71.2 µM) in experiment [1], 0.5 µg/mL (≈ 1.11 µM) in experiment [2], 1 µg/mL (≈ 2.22 µM) in experiment [3] and 1 µg/mL (≈ 2.22 µM) in experiment [4].
For the compound `C[C@@](CCn1ncc2c(F)c(C#Cc3ccc(C4(CO)COC4)cc3)ccc21)(C(=O)NO)S(C)(=O)=O` [Example 40, (R)-4-(4-fluoro-5-((4-(3-(hydroxymethyl)oxetan-3-yl)phenyl)ethynyl)-1H-indazol-1-yl)-N-hydroxy-2-methyl-2-(methylsulfonyl)butanamide], the MIC in experiment [1] stood at 0.5 µg/mL (≈ 0.97 µM); in experiment [2] it was 0.5 µg/mL (≈ 0.97 µM); in experiment [3], 1 µg/mL (≈ 1.94 µM); in experiment [4], 4 µg/mL (≈ 7.76 µM).
For the compound `CC(CCn1ncc2cc(/C=C/c3ccccc3)ccc21)(C(=O)NO)S(C)(=O)=O` (racemic) [RE3, (RS)-(E)-N-hydroxy-2-methyl-2-(methylsulfonyl)-4-(5-styryl-1H-indazol-1-yl)butanamide], the minimum inhibitory concentration (MIC) in experiment [1] turned out to be 0.25 µg/mL (≈ 0.605 µM); in experiment [2], 0.25 µg/mL (≈ 0.605 µM); in experiment [3] it was 1 µg/mL (≈ 2.42 µM); in experiment [4], 16 µg/mL (≈ 38.7 µM).
Regarding `C[C@@](CCn1ncc2cc(C#CC#CC3(O)COC3)ccc21)(C(=O)NO)S(C)(=O)=O` [Example 5, (R)—N-hydroxy-4-(5-((3-hydroxyoxetan-3-yl)buta-1,3-diyn-1-yl)-1H-indazol-1-yl)-2-methyl-2-(methylsulfonyl)butanamide], the MIC in experiment [1] is over 32 µg/mL; in experiment [2] it was 1 µg/mL (≈ 2.32 µM); in experiment [3] it was 1 µg/mL (≈ 2.32 µM); in experiment [4], 2 µg/mL (≈ 4.64 µM).
`C[C@@](CCn1ccc2cc(C#Cc3ccc(CO)cc3)ccc21)(C(=O)NO)S(C)(=O)=O` [Example 9, (R)—N-hydroxy-4-(5-((4-(hydroxymethyl)phenyl)ethynyl)-1H-indol-1-yl)-2-methyl-2-(methylsulfonyl)butanamide]: the minimal inhibitory concentration (MIC) in experiment [1] was 0.125 µg/mL (≈ 0.284 µM); in experiment [2], at most 0.063 µg/mL; in experiment [3], 0.125 µg/mL (≈ 0.284 µM); in experiment [4], 1 µg/mL (≈ 2.27 µM).
Regarding `CC(C)(O)C#CC#Cc1ccc2c(cnn2CC[C@](C)(C(=O)NO)S(C)(=O)=O)c1` [Example 7, (R)—N-hydroxy-4-(5-(5-hydroxy-5-methylhexa-1,3-diyn-1-yl)-1H-indazol-1-yl)-2-methyl-2-(methylsulfonyl)butanamide], the MIC came out at 32 µg/mL (≈ 76.6 µM) in experiment [1], 0.5 µg/mL (≈ 1.2 µM) in experiment [2], 1 µg/mL (≈ 2.4 µM) in experiment [3] and 2 µg/mL (≈ 4.79 µM) in experiment [4].
For the compound `CC(CCn1ncc2cc(-c3ccc(OC(F)(F)F)cc3)ccc21)(C(=O)NO)S(C)(=O)=O` (racemic) [RE7, (RS)—N-hydroxy-2-methyl-2-(methylsulfonyl)-4-(5-(4-(trifluoromethoxy)phenyl)-1H-indazol-1-yl)butanamide], the minimum inhibitory concentration (MIC) in experiment [1] is 8 µg/mL (≈ 17 µM); in experiment [2] it was 4 µg/mL (≈ 8.48 µM); in experiment [3] it was 1 µg/mL (≈ 2.12 µM); in experiment [4], 8 µg/mL (≈ 17 µM).
For `C[C@@](CCn1ccc2cc(C#Cc3ccc([C@H]4C[C@@H]4CO)cc3)ccc21)(C(=O)NO)S(C)(=O)=O` [Example 33, (R)—N-hydroxy-4-(5-((4-((1S,2S)-2-(hydroxymethyl)cyclopropyl)phenyl)ethynyl)-1H-indol-1-yl)-2-methyl-2-(methylsulfonyl)butanamide], the minimum inhibitory concentration (MIC) in experiment [1] amounted to 0.125 µg/mL (≈ 0.26 µM); in experiment [2] it was 0.125 µg/mL (≈ 0.26 µM); in experiment [3], 0.25 µg/mL (≈ 0.52 µM); in experiment [4], 2 µg/mL (≈ 4.16 µM).
Regarding `C[C@@](CCn1ncc2cc(C#Cc3ccc(CCO)cc3)ccc21)(C(=O)NO)S(C)(=O)=O` [Example 14, (R)—N-hydroxy-4-(5-((4-(2-hydroxyethyl)phenyl)ethynyl)-1H-indazol-1-yl)-2-methyl-2-(methylsulfonyl)butanamide], the MIC was 0.125 µg/mL (≈ 0.274 µM) in experiment [1], at most 0.063 µg/mL in experiment [2], 0.25 µg/mL (≈ 0.549 µM) in experiment [3] and 1 µg/mL (≈ 2.2 µM) in experiment [4].
For `C[C@@](CCn1ncc2cc(C#CC#C[C@@H]3C[C@H]3CO)ccc21)(C(=O)NO)S(C)(=O)=O` [Example 42, (R)—N-hydroxy-4-(5-(((1R,2R)-2-(hydroxymethyl)cyclopropyl)buta-1,3-diyn-1-yl)-1H-indazol-1-yl)-2-methyl-2-(methylsulfonyl)butanamide], in that order: 32 µg/mL (≈ 74.5 µM), at most 0.063 µg/mL, 0.25 µg/mL (≈ 0.582 µM) and 0.5 µg/mL (≈ 1.16 µM).
On to `CC(CCn1ncc2cc(C#Cc3ccc(CN4CCOCC4)cc3)ccc21)(C(=O)NO)S(C)(=O)=O.Cc1ccc(S(=O)(=O)O)cc1` (racemic) [RE5, (RS)—N-hydroxy-2-methyl-2-(methylsulfonyl)-4-(5-((4-(morpholinomethyl)phenyl)ethynyl)-1H-indazol-1-yl)butanamide 4-toluenesulfonic acid salt], for which the minimal inhibitory concentration (MIC) in experiment [1] amounted to 32 µg/mL; in experiment [2], 0.5 µg/mL; in experiment [3], 0.5 µg/mL; in experiment [4], 16 µg/mL.
For the compound `C[C@@](CCn1ncc2c(F)c(C#CC#CC3(CO)CC3)ccc21)(C(=O)NO)S(C)(=O)=O` [Example 39, (R)-4-(4-fluoro-5-((1-(hydroxymethyl)cyclopropyl)buta-1,3-diyn-1-yl)-1H-indazol-1-yl)-N-hydroxy-2-methyl-2-(methylsulfonyl)butanamide], the MIC in experiment [1] amounted to 32 µg/mL (≈ 71.5 µM); in experiment [2], 0.25 µg/mL (≈ 0.559 µM); in experiment [3], 0.5 µg/mL (≈ 1.12 µM); in experiment [4], 2 µg/mL (≈ 4.47 µM).
In the case of `C[C@@](CCn1ncc2cc(C#Cc3ccc(CO)cc3)ccc21)(C(=O)NO)S(C)(=O)=O` [Example 4, (R)—N-hydroxy-4-(5-((4-(hydroxymethyl)phenyl)ethynyl)-1H-indazol-1-yl)-2-methyl-2-(methylsulfonyl)butanamide], the MIC in experiment [1] was 0.125 µg/mL (≈ 0.283 µM); in experiment [2] it was 0.125 µg/mL (≈ 0.283 µM); in experiment [3] it was at most 0.063 µg/mL; in experiment [4], 2 µg/mL (≈ 4.53 µM).
Consider `C[C@@](CCn1ncc2c(F)c(C#Cc3ccc(C4(O)COC4)cc3)ccc21)(C(=O)NO)S(C)(=O)=O` [Example 30, (R)-4-(4-fluoro-5-((4-(3-hydroxyoxetan-3-yl)phenyl)ethynyl)-1H-indazol-1-yl)-N-hydroxy-2-methyl-2-(methylsulfonyl)butanamide], for which the minimal inhibitory concentration (MIC) in experiment [1] was determined as 0.125 µg/mL (≈ 0.249 µM); in experiment [2], 0.25 µg/mL (≈ 0.498 µM); in experiment [3], 0.5 µg/mL (≈ 0.997 µM); in experiment [4], 1 µg/mL (≈ 1.99 µM).
Consider `C[C@@](CCn1ccc2cc(C#CC#CC3(O)COC3)ccc21)(C(=O)NO)S(C)(=O)=O` [Example 11, (R)—N-hydroxy-4-(5-((3-hydroxyoxetan-3-yl)buta-1,3-diyn-1-yl)-1H-indol-1-yl)-2-methyl-2-(methylsulfonyl)butanamide], for which the MIC in experiment [1] turned out to be 16 µg/mL (≈ 37.2 µM); in experiment [2], 0.5 µg/mL (≈ 1.16 µM); in experiment [3], 0.25 µg/mL (≈ 0.581 µM); in experiment [4] it was 1 µg/mL (≈ 2.32 µM).
In the case of “(R)—N-hydroxy-4-(5-((3-hydroxythietan-3-yl)buta-1,3-diyn-1-yl)-1H-indol-1-yl)-2-methyl-2-(methylsulfonyl)butanamide [Example 32]”, in experiment [1], the “MIC for A. Baumannii T6474” value stood at 16 µg/mL. The “MIC for E. coli ATCC25922” value in experiment [2] amounted to 0.125 µg/mL. In addition, the “MIC for K. Pneumoniae A-651” value in experiment [3] is 0.25 µg/mL. The “MIC for P. aeruginosa ATCC27853” value in experiment [4] came out at 2 µg/mL.
